Experimental data taken from PubChem BioAssay (NCI).
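96-well plates; 48 h exposure; 5 concentrations. Endpoints by linear interpolation between flanking doses. Not reached: highest tested concentration assigned. The concentration for full growth arrest is given as TGI.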

Experiments:
Experiment in all cases: DTP human tumour cell line panel, 48 h
[1] = system: 786-0 renal
[2] = system: A498 renal
[3] = system: A549 NSCLC
[4] = system: ACHN renal
[5] = system: CAKI-1 renal
[6] = system: CCRF-CEM leukemia
[7] = system: COLO 205 colon
[8] = system: DLD-1 colon
[9] = system: DMS 114 small cell lung
[10] = system: DMS 273 small cell lung
[11] = system: EKVX NSCLC
[12] = system: HCC-2998 colon
[13] = system: HCT-116 colon
[14] = system: HCT-15 colon
[15] = system: HL-60(TB) leukemia
[16] = system: HOP-62 NSCLC
[17] = system: HOP-92 NSCLC
[18] = system: HT29 colon
[19] = system: IGROV1 ovarian
[20] = system: K-562 leukemia
[21] = system: KM12 colon
[22] = system: KM20L2 colon
[23] = system: LOX IMVI melanoma
[24] = system: LXFL 529 NSCLC
[25] = system: M14 melanoma
[26] = system: M19-MEL melanoma
[27] = system: MALME-3M melanoma
[28] = system: MOLT-4 leukemia
[29] = system: NCI-H226 lung
[30] = system: NCI-H23 lung
[31] = system: NCI-H460 lung
[32] = system: NCI-H522 lung
[33] = system: OVCAR-3 ovarian
[34] = system: OVCAR-4 ovarian
[35] = system: OVCAR-5 ovarian
[36] = system: OVCAR-8 ovarian
[37] = system: RPMI-8226 leukemia
[38] = system: RXF 393 renal
[39] = system: RXF-631 renal
[40] = system: SF-268 CNS
[41] = system: SF-295 CNS
[42] = system: SF-539 CNS
[43] = system: SK-MEL-2 melanoma
[44] = system: SK-MEL-28 melanoma
[45] = system: SK-MEL-5 melanoma
[46] = system: SK-OV-3 ovarian
[47] = system: SN12C renal
[48] = system: SNB-19 CNS
[49] = system: SNB-75 CNS
[50] = system: SNB-78 CNS
[51] = system: SW-620 colon
[52] = system: TK-10 renal
[53] = system: U251 CNS
[54] = system: UACC-257 melanoma
[55] = system: UACC-62 melanoma
[56] = system: UO-31 renal
[57] = system: XF 498 CNS
[58] = system: SR leukemia

N#C/C(=C\c1ccccc1O)C(N)=O was tested, and the TGI [1] was greater than 100 µM, the TGI [2] was greater than 100 µM and the TGI [3] was greater than 100 µM. For the same compound, the TGI [4] was greater than 100 µM, the TGI [5] was greater than 100 µM and the TGI [6] was 83.1 µM. The TGI [7] was greater than 100 µM, the TGI [8] was greater than 100 µM and the TGI [9] was greater than 100 µM. The TGI [10] was greater than 100 µM, the TGI [11] was greater than 100 µM and the TGI [12] was greater than 100 µM. For the same compound, the TGI [13] was greater than 100 µM, the TGI [14] was greater than 100 µM and the TGI [15] was 43.3 µM. The TGI [16] was greater than 100 µM, the TGI [17] was greater than 100 µM and the TGI [18] was greater than 100 µM. The TGI [19] was greater than 100 µM, the TGI [20] was greater than 100 µM and the TGI [21] was greater than 100 µM. It also gave a TGI [22] greater than 100 µM, a TGI [23] greater than 100 µM and a TGI [24] greater than 100 µM. The TGI [25] was greater than 100 µM, the TGI [26] was greater than 100 µM and the TGI [27] was greater than 100 µM. For the same compound, the TGI [28] was greater than 100 µM, the TGI [29] was greater than 100 µM and the TGI [30] was greater than 100 µM. It also gave a TGI [31] greater than 100 µM, a TGI [32] greater than 100 µM and a TGI [33] greater than 100 µM. For the same compound, the TGI [34] was greater than 100 µM, the TGI [35] was greater than 100 µM and the TGI [36] was greater than 100 µM. It also gave a TGI [37] greater than 100 µM, a TGI [38] of 87.5 µM and a TGI [39] greater than 100 µM. For the same compound, the TGI [40] was greater than 100 µM, the TGI [41] was greater than 100 µM and the TGI [42] was greater than 100 µM. It also gave a TGI [43] greater than 100 µM, a TGI [44] greater than 100 µM and a TGI [45] greater than 100 µM. It also gave a TGI [46] greater than 100 µM, a TGI [47] greater than 100 µM and a TGI [48] greater than 100 µM. The TGI [49] was 69.7 µM, the TGI [50] was greater than 100 µM and the TGI [51] was greater than 100 µM. The TGI [52] was greater than 100 µM, the TGI [53] was greater than 100 µM and the TGI [54] was greater than 100 µM. It also gave a TGI [55] greater than 100 µM, a TGI [56] greater than 100 µM and a TGI [57] greater than 100 µM.

With COc1c2c(c3c(c1C1OC(C)[C@@H](C)O1)CC(C)(C)O3)C(=O)c1ccccc1C2=O (some centres not stated) the TGI [1] was greater than 100 µM, the TGI [3] was greater than 100 µM and the TGI [4] was greater than 100 µM. It also gave a TGI [5] greater than 100 µM, a TGI [6] of 53.2 µM and a TGI [7] greater than 100 µM. For the same compound, the TGI [8] was greater than 100 µM, the TGI [9] was greater than 100 µM and the TGI [10] was 69.7 µM. The TGI [11] was greater than 100 µM, the TGI [12] was greater than 100 µM and the TGI [13] was greater than 100 µM. For the same compound, the TGI [14] was greater than 100 µM, the TGI [15] was 31.6 µM and the TGI [16] was greater than 100 µM. It also gave a TGI [17] of 89.7 µM, a TGI [18] greater than 100 µM and a TGI [19] greater than 100 µM. It also gave a TGI [20] greater than 100 µM, a TGI [21] greater than 100 µM and a TGI [22] greater than 100 µM. The TGI [23] was 28.6 µM, the TGI [24] was greater than 100 µM and the TGI [25] was greater than 100 µM. It also gave a TGI [26] greater than 100 µM, a TGI [27] greater than 100 µM and a TGI [29] greater than 100 µM. It also gave a TGI [30] greater than 100 µM, a TGI [31] greater than 100 µM and a TGI [33] greater than 100 µM. It also gave a TGI [34] greater than 100 µM, a TGI [35] greater than 100 µM and a TGI [36] greater than 100 µM. The TGI [37] was 52.2 µM, the TGI [38] was greater than 100 µM and the TGI [39] was 33.4 µM. The TGI [40] was greater than 100 µM, the TGI [41] was greater than 100 µM and the TGI [42] was greater than 100 µM. For the same compound, the TGI [43] was greater than 100 µM, the TGI [44] was greater than 100 µM and the TGI [45] was greater than 100 µM. The TGI [46] was greater than 100 µM, the TGI [47] was greater than 100 µM and the TGI [48] was greater than 100 µM. The TGI [49] was greater than 100 µM, the TGI [50] was greater than 100 µM and the TGI [58] was 68.2 µM. It also gave a TGI [51] of 63.6 µM, a TGI [52] greater than 100 µM and a TGI [53] greater than 100 µM. For the same compound, the TGI [54] was greater than 100 µM, the TGI [55] was greater than 100 µM and the TGI [56] was greater than 100 µM. For the same compound, the TGI [57] was greater than 100 µM.
